Assay results from patent publication US20250281472A1, “OPHTHALMIC COMPOSITION INHIBITING OCCURRENCE OF N-OXOPYRIDINE COMPOUND FOR PREVENTING OR TREATING EYE DISEASE” (Samjin Pharmaceutical Co., Ltd., priority 2021, published 2025).

Test: Long-term storage of the active ingredient as a liquid eye drop (impurity formation)
Format: physicochemical
Excerpt: The present invention is to provide a composition capable of providing an eye drop treatment for various eye diseases. For this purpose, the composition has the essential condition of securing the stability of the active ingredient in a liquid state as an eye drop for about six months or more. […] And as a result of confirming a structure of the corresponding impurity, it was confirmed that the impurity is 3-phenyl-4-propyl-1-(N-oxopyridin-2-yl)-1H-pyrazol-5-ol (hereinafter, N-oxopyridine compound), in which an N-oxide structure is formed in a pyridine structure of the active ingredient. If the pH condition is adjusted to a neutral region where the active ingredient is stable, most impurities are controlled to be within about 0.5%. However, it was confirmed that the N-oxopyridine compound drastically increases to a level exceeding about 30% with a decrease in the active ingredient content even when the pH is controlled.

Q: For `CCCc1c(-c2ccccc2)nn(-c2ccccn2)c1O` [3-phenyl-4-propyl-1-(pyridin-2-yl)-1H-pyrazol-5-ol], which “level of N-oxopyridine compound” value (liquid eye drop stored about six months or more, long-term storage condition, pH controlled to neutral region) is on record?
A: exceeding 30%

Q: And the “most impurities (other than N-oxopyridine compound)” value (liquid eye drop, pH adjusted to a neutral region)?
A: ≤ 0.5%
